Measured values reported in article PMC10122656, “Siglec-6 mediates the uptake of extracellular vesicles through a noncanonical glycolipid binding pocket” (Nature Communications, 2023).
“And” between values parts separate entries of the source, which are not always exact repeats. Identical values can stand only once.

Tests used:
[1] = Ganglioside content quantification in liposomes by ESI-MS; format: physicochemical; details: peer review file; Supplementary Table 1
Description: The average ganglioside content in a given liposome sample was measured by electrospray ionization mass spectrometry (ESI-MS) using an internal standard (IS)[70]. Briefly, the liposome sample was first disassembled in a methanol solution of 0.15% formic acid, and a known amount of IS was added. The solution was then analyzed by ESI-MS. The total ion abundance (Ab) ratio of the ganglioside (GSL) to the IS measured by ESI-MS is related to the corresponding solution concentration ratio by Eq. (1):1 R=AbGSL/AbIS=GSL/IS and thus the ganglioside concentration can be obtained from linear regression. The corrected ganglioside percentage (GSL%corr) and the ganglioside incorporation in the liposome can be found from Eqs. (2) and (3), respectively, where [GSL]nominal is the nominal concentration of the ganglioside used for liposome preparation:2 GSL%corr=[GSL]/[TotalLipid] 3 Incorporation=[GSL]/GSLnominal
The corresponding deuterium labeled gangliosides, N-ω-CD3-octadecanoyl monosialoganglioside GM2 (GM2-d3), and N-ω-CD3-octadecanoyl monosialoganglioside GM3 (GM3-d3), purchased form Matreya LLC (State College, PA), were used as IS for GM2 and GM3 content quantification, respectively. All these measurements were carried out in negative ion mode using a Q Exactive Hybrid Quadrupole-Orbitrap mass spectrometer coupled with the Nanospray Flex Ion Source (Thermo Fisher Scientific, Bremen, Germany). […]

[2] = tested on: memory B-cells; assay: Liposome binding to peripheral blood memory B-cells by flow cytometry; format: cell-based, human
Description: (§1) 200,000 cells/well were plated into a 96-well U-bottom microplate and centrifuged at 300 × g for 5 min. The cells were then resuspended in 50 µL of 50 µM liposome/50 µg/mL (protein concentration) of EV solution in DMEM F12 5% FBS and incubated at 37 °C for 30 min. Excess liposomes were then removed via centrifuged at 300 × g for 5 min followed by washing the cells with FACS solution. The cells were then resuspended in (1:250 V/V) anti-Siglec-flow buffer (1% V/V FBS, 500 µM, EDTA Hank’s Balanced Salt Solution pH 7.4), solution and left to rest on ice for 30 min. The cells were then centrifuged again at 300 × g for 5 min and the cells were resuspended in FACS buffer solution and were then ready for analysis by flow cytometry. Information regarding antibody clone, catalog number supplier, label isotype, and dilution can be found in Supplementary Table 6. The Siglec-positive cells were gated on for liposome-binding analysis (Supplementary Fig. 1b).
(§2) Flow cytometry measurements were collected on a 5-laser Fortessa X-20 (BD Bioscience). All the resulting data were analyzed using FlowJo (10.5.3) software (BD Biosciences).

[3] = tested on: naïve B-cells; assay: Liposome binding to peripheral blood naïve B-cells by flow cytometry; format: cell-based, human; details: sheet Figure S29, 5% GM3-DAG liposomes; cells not given
Description: as §1, §2

[4] = biological target: T1, WT Siglec-6-Fc (Homo sapiens, UniProt O43699); assay: Bead assay (Siglec-Fc on streptavidin microbeads, flow cytometry); format: binding
T1 construct: the Siglecs as Fc chimeras; made in house; host or cells: WT CHO cells
T1 sequence (O43699 27-347 limits assumed): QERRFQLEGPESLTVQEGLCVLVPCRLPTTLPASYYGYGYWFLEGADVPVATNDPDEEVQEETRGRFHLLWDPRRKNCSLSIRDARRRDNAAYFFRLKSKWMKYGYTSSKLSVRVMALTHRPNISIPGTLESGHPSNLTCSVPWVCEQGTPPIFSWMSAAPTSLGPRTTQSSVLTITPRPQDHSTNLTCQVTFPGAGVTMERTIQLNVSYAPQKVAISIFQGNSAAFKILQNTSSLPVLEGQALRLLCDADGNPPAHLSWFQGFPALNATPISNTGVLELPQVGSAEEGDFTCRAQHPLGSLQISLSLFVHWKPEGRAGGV
Description: (§3) Siglec-Fc constructs designed by Rodrigues et al.[30] were used in this work. Siglec-Fc constructs were expressed using WT CHO cells in cell culture media as described above with 1% HEPES. Cells incubated as described above for one-week post confluency. The supernatant was harvested and stored at 4 °C.
(§4) The purification was heavily inspired by Rodrigues et al.[30]. The purification of the Siglec-Fcs from supernatant began with Ni^2+ affinity chromatography using an AKTA FPLC equipped with a HisTrap Excel column (GE). The column was equilibrated with fifteen column volumes (CVs) of equilibrium buffer (500 mM NaCl, 20 mM NaPO4H2, pH 7.4). The Siglec-Fc containing supernatant was then loaded in its entirety onto the column. The column was then washed with fifteen CVs of wash buffer (500 mM NaCl, 30 mM imidazole, 20 mM NaPO4H2, pH 7.4). The Siglec-Fc was then eluted in 20 in 1 mL fractions with twenty CVs of elution buffer (500 mM NaCl, 500 mM imidazole, 20 mM NaPO4H2, pH 7.4). Fractions containing Siglec-Fc were compiled and then prepared for the next stage of purification by diluting the fractions 1:4 with buffer W (100 mM Tris–HCl, 150 mM NaCl, 1 mM EDTA, pH 8.0). A Strep-Tactin column (IBA life sciences) was washed with fifteen CVs of buffer W. The Siglec-Fc-buffer W solution was then loaded in its entirety onto the column. The bound Siglec-Fc was then washed with fifteen CVs of buffer W. Siglec-Fc was eluted from the column with 15 column volumes of buffer E (100 mM Tris–HCl, 150 mM NaCl, 1 mM EDTA, 10 mM d-Desthiobiotin, pH 8.0). Fractions containing Siglec-Fc were pooled and dialyzed against PBS to remove any d-Desthiobiotin. After dialysis, Siglec-Fcs were concentrated using an ultra-centrifugal device (30 kDa MWCO) and aliquoted into 5 µg aliquots, and frozen. The Siglec-Fcs were then lyophilized overnight, and the lyophilized Siglec-Fcs were stored at −20 °C.
(§5) Pierce^TM Streptavidin Magnetic Beads (Thermo Scientific) were blocked with 2% (m/V) BSA on ice for 1 h. Siglec-Fc in PBS was added then added to the bead solution such that the final concentration was 25 µg/mL. The Siglec-Fc was complexed to the beads for 1 h on ice. Excess Siglec-Fc was removed by washing the beads with 2% BSA solution and 50 µM liposome or 50 µg/mL (protein concentration) EV solution was then added to the beads. The beads were incubated with the liposomes/EVs for 30 min at 37 °C. The beads were then washed with 2% BSA solution and flow cytometry was used to measure the binding between the beads and the liposomes.

[5] = biological target: T2, R92K Siglec-6-Fc (Homo sapiens, UniProt O43699, R92K); assay: as above; format: binding
T2 construct: the Siglecs as Fc chimeras; made in house; host or cells: WT CHO cells
T2 sequence (O43699 27-347 R92K limits assumed): as the sequence (O43699 27-347 limits assumed) above, with R66K counted along it
Description: as §3, §4, §5

Compound: GM3
- incorporation of ganglioside into liposomes [1]: 96%

Compound: CCCCCCCCCCCCCCCCOCC(COCCCCCCCCCCCCCCCC)OCc1cn(CCO[C@@H]2O[C@H](CO)[C@@H](O[C@@H]3O[C@H](CO)[C@H](O)[C@H](O[C@]4(C(=O)O)C[C@H](O)[C@@H](NC(C)=O)[C@H]([C@H](O)[C@H](O)CO)O4)[C@H]3O)[C@H](O)[C@H]2O)nn1 [GM3-DAG]
- liposome binding, fluorescence signal (replicates) ([2]; sheet Figure S29, 5% GM3-DAG liposomes, cells not given): 361 and 385 and 363 and 344
- liposome binding, fluorescence signal (replicates) [3]: 154 and 151 and 136 and 149
- liposome binding, fluorescence signal (replicates) ([4]; sheet Figure S27, WT, assay format not given): 13816 and 10279 and 11696 and 11729
- liposome binding, fluorescence signal (replicates) ([5]; sheet Figure S27, R92K, assay format not given): 264 and 225 and 240 and 223

Compound: CCCCCCCCCCCCCCCCOCC(COCCCCCCCCCCCCCCCC)OCc1cn(CCO[C@@H]2O[C@H](CO)[C@@H](O[C@@H]3O[C@H](CO)[C@H](O)[C@H](O[C@]4(C(=O)O)C[C@H](O)[C@@H](NC(C)=O)[C@H]([C@H](O)[C@H](O)CO)O4)[C@H]3O)[C@H](O)[C@H]2O)nn1 [nGL 5]
- 5 nGLL binding to memory B-cells after pre-treatment with anti-Siglec-6 antibody [2]: Blocking of 5 nGLLs to human memory B-cells was achieved
- 5 nGLL binding to memory B-cells compared to naïve B-cells ([2]; four healthy donors): significant binding
- blocking of EV binding to Siglec-6 with 5 mol% 5 nGLLs ([4]; bead assay): competed away binding of EVs
- binding of 5 nGLLs to R92K Siglec-6 Fc compared to WT Siglec-6 ([5]; bead assay): less than 5%

Compound: GM2
- incorporation of ganglioside into liposomes [1]: 98%
